Source: ChEMBL document CHEMBL4376879, “Fragment-to-Lead Medicinal Chemistry Publications in 2018” (J Med Chem, 2020)

Assays:
[1] = biological target: Beta-2 adrenergic receptor (Homo sapiens, UniProt P07550); test: Inhibition of beta2 adrenoreceptor (unknown origin)
[2] = biological target: T1, Glycylpeptide N-tetradecanoyltransferase 1 (Homo sapiens, UniProt P30419); test: Inhibition of human N-myristoyltransferase assessed as reduction in CoASH production by fluorogenic detection based assay
T1 sequence (P30419 whole entry): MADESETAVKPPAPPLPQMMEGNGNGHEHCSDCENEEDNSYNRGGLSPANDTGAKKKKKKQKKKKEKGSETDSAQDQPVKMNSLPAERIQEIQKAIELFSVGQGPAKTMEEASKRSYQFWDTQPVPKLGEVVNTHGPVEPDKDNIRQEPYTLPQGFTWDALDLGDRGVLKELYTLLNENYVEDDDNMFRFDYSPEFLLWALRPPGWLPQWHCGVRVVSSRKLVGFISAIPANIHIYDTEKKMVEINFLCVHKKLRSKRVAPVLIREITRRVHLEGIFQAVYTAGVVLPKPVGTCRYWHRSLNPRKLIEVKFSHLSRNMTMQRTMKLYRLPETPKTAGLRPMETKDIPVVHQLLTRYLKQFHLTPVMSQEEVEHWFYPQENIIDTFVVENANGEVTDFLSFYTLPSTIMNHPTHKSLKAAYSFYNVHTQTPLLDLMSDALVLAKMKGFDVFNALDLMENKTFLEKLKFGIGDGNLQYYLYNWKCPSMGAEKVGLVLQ

[3] = biological target: cAMP and cAMP-inhibited cGMP 3',5'-cyclic phosphodiesterase 10A (Homo sapiens, UniProt Q9Y233); test: Inhibition of human PDE10A2 using cAMP substrate by HTRF assay
Sequence of cAMP and cAMP-inhibited cGMP 3',5'-cyclic phosphodiesterase 10A (Q9Y233 whole entry, the tested form may be a part): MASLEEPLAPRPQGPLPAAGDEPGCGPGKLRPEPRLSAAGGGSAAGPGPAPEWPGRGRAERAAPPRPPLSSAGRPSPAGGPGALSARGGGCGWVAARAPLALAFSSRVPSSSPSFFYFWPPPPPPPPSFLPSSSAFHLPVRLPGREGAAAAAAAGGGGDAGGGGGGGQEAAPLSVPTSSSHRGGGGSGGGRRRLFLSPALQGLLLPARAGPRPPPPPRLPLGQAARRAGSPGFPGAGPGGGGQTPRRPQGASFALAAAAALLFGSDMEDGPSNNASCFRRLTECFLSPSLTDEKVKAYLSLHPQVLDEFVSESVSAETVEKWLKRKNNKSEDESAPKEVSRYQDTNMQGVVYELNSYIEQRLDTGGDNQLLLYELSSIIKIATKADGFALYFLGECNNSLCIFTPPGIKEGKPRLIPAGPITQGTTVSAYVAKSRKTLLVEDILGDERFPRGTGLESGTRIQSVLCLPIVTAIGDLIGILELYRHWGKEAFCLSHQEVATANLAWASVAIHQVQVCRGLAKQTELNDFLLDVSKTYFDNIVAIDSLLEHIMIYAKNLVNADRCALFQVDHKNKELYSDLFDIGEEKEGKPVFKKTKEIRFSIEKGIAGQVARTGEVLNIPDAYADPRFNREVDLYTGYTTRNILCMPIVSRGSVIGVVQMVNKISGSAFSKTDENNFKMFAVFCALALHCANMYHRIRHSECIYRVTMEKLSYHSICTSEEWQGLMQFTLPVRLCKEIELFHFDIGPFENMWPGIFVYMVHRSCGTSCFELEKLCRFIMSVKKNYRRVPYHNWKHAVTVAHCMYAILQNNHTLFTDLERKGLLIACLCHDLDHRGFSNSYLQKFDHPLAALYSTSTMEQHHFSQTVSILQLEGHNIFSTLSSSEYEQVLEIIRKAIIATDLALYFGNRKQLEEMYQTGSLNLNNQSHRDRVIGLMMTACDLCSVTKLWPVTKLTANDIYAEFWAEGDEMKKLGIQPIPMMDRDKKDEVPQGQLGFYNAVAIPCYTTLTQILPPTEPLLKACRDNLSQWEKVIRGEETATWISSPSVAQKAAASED

[4] = biological target: GTPase HRas (Homo sapiens, UniProt P01112, G12V); test: Inhibition GST-tagged recombinant HRAS G12V mutant (1 to 166 amino acids) (unknown origin) expressed in Escherichia coli C41(DE3) by SPR assay
Sequence of GTPase HRas (P01112 whole entry G12V, the tested form may be a part): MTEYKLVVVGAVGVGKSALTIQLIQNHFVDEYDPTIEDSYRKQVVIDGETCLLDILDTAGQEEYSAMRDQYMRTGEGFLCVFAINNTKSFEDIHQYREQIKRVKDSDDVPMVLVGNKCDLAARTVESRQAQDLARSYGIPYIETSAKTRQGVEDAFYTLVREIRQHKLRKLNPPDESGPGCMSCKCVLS

[5] = biological target: CREB-binding protein (Homo sapiens, UniProt Q92793); test: Binding affinity to Poly-Histidine-tagged CBP (unknown origin) expressed in Escherichia coli BL21(DE3) by competition binding assay
Sequence of CREB-binding protein (Q92793 whole entry): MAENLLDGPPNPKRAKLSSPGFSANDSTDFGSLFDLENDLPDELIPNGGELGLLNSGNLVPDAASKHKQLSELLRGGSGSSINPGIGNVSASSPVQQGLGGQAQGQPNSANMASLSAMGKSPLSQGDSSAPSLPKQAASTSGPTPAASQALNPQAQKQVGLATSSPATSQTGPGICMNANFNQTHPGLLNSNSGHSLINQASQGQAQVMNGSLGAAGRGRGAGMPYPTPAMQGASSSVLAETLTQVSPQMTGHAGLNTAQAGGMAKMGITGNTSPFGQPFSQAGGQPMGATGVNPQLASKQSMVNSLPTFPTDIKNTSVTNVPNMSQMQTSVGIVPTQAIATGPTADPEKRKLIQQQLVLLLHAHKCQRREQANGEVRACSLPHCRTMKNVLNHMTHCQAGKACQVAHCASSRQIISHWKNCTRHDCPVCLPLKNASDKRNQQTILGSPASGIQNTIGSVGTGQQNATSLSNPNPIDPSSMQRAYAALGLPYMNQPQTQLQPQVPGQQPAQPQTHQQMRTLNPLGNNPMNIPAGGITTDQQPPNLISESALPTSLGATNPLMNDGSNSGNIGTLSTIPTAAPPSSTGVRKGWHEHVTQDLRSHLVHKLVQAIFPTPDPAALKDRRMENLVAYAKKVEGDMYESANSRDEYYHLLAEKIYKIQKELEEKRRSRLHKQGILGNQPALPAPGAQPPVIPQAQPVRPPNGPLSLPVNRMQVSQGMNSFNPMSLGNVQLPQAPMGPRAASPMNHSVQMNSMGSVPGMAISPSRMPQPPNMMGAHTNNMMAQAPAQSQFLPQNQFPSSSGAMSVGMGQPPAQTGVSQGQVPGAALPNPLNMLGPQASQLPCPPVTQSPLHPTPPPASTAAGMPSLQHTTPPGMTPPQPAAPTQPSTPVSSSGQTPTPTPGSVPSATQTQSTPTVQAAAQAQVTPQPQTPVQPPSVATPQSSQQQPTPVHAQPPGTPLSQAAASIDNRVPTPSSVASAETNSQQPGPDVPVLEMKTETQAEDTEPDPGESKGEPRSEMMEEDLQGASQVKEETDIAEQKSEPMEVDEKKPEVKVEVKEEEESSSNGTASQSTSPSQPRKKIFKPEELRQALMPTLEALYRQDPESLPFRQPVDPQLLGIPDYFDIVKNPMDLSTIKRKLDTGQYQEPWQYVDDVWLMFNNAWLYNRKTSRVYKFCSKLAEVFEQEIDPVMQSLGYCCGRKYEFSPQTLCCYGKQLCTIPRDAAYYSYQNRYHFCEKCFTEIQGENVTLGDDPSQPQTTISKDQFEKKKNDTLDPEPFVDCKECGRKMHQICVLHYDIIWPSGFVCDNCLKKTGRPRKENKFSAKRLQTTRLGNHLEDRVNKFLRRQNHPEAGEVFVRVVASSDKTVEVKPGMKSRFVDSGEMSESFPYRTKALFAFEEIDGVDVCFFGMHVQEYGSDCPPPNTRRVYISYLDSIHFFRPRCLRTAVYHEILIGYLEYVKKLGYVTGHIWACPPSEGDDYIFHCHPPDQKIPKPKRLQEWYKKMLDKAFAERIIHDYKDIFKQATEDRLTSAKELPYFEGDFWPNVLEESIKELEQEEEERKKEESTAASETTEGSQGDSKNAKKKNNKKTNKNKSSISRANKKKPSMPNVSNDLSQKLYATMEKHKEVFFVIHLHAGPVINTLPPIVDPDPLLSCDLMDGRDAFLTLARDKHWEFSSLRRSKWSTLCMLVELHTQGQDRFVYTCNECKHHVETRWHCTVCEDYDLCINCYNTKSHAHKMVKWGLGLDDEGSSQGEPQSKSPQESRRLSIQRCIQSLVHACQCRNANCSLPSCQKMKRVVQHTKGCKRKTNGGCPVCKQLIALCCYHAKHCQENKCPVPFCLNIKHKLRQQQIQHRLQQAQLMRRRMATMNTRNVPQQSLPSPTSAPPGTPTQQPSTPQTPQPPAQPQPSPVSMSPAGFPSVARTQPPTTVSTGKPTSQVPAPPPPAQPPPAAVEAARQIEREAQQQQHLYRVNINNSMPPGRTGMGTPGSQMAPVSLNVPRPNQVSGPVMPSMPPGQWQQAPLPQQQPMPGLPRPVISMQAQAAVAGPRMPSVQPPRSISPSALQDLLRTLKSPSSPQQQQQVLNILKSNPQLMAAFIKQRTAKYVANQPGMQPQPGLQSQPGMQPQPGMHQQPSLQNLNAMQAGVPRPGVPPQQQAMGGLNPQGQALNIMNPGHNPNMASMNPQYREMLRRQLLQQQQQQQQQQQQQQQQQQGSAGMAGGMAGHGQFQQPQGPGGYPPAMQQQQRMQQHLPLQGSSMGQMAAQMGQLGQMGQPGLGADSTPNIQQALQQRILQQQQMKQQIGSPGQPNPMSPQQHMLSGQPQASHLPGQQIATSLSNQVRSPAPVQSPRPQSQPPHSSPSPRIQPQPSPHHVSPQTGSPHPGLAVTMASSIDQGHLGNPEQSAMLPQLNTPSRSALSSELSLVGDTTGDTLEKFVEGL

Sequence of Beta-2 adrenergic receptor (P07550 whole entry): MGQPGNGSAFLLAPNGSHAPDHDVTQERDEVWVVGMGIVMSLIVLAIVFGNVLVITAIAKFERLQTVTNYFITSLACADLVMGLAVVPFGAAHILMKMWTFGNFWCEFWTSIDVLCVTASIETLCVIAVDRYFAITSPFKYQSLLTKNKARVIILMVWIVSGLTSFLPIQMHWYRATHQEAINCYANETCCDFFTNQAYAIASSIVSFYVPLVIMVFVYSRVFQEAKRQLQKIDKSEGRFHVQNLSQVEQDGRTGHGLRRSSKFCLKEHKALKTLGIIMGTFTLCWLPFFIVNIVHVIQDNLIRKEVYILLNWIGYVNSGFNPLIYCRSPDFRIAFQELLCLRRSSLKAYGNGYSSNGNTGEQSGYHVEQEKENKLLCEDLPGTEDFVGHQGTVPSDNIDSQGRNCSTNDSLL

NCc1ccc(-c2ncccn2)cc1
IC50 [1]: 10 µM

Cc1nn(C)c(C)c1CCOc1c(-c2ccc3c(c2)c(CN(C)C)nn3C)ccc(F)c1F
IC50 [2]: < 0.001 µM

Cc1cc2nccc(-c3ccc(Cl)cc3)n2n1
IC50 [3]: < 10 µM

COc1nc(-c2cccc3c2OCCO3)ccc1Nc1ccc(CN(C)C)cc1
Kd [4]: 0.051 µM

CCOc1ccc(C(C)=O)cc1N
Kd [5]: 53 µM

Clc1ccc(CNCc2ccc(-c3ncccn3)cc2)cc1Cl
IC50 [1]: < 0.001 µM

O=C(Nc1ccc2ccccc2n1)c1ccco1
Kd [4]: > 370 µM
